Measurements reported in ChEMBL document CHEMBL5653631, “A Potent and Selective ULK1 Inhibitor Suppresses Autophagy and Sensitizes Cancer Cells to Nutrient Stress” (iScience, 2018).

What was measured:
[1] = biological target: T1, Inhibitor of nuclear factor kappa-B kinase subunit epsilon (Homo sapiens) (UniProt Q14164); assay: Inhibition of human recombinant IKKe at 500 nM in presence of ATP by radiometric assay relative to control
T1 sequence (whole entry): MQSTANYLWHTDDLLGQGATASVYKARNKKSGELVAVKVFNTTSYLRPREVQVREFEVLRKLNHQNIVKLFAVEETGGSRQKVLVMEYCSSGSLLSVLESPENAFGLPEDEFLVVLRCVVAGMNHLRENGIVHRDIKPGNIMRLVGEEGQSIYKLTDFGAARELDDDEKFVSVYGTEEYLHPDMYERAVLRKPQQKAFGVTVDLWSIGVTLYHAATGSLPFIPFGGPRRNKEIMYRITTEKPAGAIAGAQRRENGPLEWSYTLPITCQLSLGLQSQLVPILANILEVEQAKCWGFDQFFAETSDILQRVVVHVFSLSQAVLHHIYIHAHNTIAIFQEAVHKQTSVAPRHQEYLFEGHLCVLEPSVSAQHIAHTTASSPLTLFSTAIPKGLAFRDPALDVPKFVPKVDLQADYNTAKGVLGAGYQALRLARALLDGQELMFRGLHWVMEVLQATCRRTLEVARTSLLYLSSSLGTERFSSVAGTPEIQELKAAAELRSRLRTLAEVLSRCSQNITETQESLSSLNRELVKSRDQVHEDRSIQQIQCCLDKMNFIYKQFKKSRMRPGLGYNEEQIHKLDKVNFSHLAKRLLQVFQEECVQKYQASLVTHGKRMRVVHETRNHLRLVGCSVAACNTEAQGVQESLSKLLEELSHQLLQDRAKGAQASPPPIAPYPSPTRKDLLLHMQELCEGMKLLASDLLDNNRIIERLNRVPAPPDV

[2] = biological target: T2, Inhibitor of nuclear factor kappa-B kinase subunit beta (Homo sapiens) (UniProt O14920); assay: Inhibition of human recombinant IKKb at 15 nM in presence of ATP by radiometric assay relative to control
T2 sequence (whole entry): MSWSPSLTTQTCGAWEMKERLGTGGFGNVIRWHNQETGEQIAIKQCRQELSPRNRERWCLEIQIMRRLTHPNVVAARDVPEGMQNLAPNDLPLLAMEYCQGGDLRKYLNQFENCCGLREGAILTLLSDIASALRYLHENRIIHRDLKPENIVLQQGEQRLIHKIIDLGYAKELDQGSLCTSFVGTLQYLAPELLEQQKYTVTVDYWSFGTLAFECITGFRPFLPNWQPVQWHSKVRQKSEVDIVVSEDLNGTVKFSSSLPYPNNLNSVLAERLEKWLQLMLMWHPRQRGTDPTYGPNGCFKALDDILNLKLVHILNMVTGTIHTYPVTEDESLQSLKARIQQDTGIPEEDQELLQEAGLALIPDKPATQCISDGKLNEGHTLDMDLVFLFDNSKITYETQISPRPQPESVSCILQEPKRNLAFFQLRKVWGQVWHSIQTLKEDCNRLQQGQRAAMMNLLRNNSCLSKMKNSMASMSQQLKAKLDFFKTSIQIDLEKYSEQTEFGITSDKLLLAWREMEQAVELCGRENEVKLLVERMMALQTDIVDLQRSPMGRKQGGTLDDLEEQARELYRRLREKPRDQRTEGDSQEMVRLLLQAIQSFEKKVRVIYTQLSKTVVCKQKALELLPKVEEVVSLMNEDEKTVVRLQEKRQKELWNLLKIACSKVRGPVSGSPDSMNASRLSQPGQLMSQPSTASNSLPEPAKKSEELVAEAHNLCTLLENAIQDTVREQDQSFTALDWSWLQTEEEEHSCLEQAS

[3] = biological target: T3, Myosin-IIIb (Homo sapiens) (UniProt Q8WXR4); assay: Inhibition of human recombinant MYO3B at 15 nM in presence of ATP by radiometric assay relative to control
T3 sequence (whole entry): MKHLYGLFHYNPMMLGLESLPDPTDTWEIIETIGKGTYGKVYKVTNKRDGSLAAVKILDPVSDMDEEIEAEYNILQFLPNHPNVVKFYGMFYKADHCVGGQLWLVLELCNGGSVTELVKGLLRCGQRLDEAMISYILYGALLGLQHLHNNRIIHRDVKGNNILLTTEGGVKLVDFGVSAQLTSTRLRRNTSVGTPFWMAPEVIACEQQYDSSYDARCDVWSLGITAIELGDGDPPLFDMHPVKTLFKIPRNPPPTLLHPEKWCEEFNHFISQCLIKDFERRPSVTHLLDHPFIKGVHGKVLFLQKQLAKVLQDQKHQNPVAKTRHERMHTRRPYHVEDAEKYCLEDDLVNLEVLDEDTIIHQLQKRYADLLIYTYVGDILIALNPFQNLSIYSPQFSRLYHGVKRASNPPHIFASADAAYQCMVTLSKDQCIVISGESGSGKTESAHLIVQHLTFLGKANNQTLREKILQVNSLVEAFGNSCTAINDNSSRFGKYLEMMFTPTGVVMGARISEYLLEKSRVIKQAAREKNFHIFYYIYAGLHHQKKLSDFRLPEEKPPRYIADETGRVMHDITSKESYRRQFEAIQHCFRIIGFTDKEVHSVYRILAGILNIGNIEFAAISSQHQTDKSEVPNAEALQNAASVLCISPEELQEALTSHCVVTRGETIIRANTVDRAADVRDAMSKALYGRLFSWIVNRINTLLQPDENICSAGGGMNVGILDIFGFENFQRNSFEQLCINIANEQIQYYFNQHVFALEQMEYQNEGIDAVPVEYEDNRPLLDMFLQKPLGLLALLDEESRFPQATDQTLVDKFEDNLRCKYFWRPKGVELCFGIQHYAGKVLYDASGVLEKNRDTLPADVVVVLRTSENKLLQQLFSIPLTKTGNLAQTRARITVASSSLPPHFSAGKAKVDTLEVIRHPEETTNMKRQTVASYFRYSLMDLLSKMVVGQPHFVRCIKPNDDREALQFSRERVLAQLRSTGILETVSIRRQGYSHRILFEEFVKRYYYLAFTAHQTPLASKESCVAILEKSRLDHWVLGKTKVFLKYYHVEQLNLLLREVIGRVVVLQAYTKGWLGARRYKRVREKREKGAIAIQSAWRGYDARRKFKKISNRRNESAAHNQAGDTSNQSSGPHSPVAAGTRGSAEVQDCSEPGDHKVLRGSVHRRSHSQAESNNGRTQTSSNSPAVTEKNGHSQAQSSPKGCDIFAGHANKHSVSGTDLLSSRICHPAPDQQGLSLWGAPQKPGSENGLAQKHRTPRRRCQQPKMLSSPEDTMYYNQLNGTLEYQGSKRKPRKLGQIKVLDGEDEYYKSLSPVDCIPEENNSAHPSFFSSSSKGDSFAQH

[4] = biological target: Cyclin-dependent kinase 13 (Homo sapiens) (UniProt Q14004); assay: Inhibition of human recombinant CHED at 15 nM related to control ULK1
Chain of Cyclin-dependent kinase 13 (Homo sapiens) (Q14004 whole entry, looked up): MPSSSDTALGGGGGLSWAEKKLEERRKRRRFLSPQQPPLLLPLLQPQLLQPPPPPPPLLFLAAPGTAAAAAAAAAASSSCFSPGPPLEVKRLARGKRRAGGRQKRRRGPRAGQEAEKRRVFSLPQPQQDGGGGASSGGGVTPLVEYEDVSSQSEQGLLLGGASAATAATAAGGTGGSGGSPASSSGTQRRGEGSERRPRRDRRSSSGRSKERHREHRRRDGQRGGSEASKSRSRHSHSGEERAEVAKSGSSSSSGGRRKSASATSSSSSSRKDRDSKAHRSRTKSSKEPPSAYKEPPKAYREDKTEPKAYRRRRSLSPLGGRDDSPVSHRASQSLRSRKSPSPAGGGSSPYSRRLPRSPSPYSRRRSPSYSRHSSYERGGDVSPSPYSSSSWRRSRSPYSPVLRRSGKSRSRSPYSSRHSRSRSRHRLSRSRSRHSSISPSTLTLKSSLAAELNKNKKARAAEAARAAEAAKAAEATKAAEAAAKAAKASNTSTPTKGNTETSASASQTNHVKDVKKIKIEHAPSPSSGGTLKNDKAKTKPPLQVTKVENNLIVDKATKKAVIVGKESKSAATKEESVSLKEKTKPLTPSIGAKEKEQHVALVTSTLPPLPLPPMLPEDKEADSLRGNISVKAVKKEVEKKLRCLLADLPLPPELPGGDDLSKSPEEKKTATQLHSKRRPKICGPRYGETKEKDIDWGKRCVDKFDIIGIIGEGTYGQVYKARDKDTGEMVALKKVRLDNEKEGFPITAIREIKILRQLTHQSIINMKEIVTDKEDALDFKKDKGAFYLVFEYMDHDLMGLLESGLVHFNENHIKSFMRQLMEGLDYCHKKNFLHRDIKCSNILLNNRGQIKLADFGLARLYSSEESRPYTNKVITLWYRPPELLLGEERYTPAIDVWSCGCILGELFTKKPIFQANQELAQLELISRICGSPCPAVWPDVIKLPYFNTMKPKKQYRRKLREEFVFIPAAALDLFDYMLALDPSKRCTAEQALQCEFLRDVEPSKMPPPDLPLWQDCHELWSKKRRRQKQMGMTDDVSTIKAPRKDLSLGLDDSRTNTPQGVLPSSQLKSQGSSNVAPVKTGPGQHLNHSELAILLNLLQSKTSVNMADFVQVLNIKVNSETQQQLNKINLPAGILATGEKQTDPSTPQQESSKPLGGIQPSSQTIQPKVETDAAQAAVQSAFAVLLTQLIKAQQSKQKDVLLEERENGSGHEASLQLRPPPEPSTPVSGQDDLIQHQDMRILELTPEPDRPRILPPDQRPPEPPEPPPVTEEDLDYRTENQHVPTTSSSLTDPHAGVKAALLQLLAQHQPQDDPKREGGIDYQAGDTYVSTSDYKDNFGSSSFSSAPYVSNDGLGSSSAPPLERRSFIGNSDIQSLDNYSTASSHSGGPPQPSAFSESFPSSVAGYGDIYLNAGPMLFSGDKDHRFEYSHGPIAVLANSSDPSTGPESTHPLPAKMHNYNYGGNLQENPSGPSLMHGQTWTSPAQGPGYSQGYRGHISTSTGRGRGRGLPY

| inhibition [1] [%] | inhibition [2] [%] | inhibition [3] [%] | fold change (FC) [4] | SMILES |
| --- | --- | --- | --- | --- |
| 0 | – | – | – | CNC(=O)c1ccccc1Oc1nc(Nc2cc(OC)c(OC)c(OC)c2)ncc1Br |
| – | 0 | 6 | 0 | CC(C)[C@H](NC(=O)c1cc(-c2cnn3cc(-c4ccc(OCCN5CCCCC5)cc4)cnc23)cs1)C(F)(F)F |
